Like-named read-outs stand apart in the source and are kept apart here.
Assays:
HTT mRNA = assay: RT-qPCR splicing assay, HTT mRNA canonical (CJ) and alternative (AJ) junction; assay type: cell-based, human; conditions: Homo sapiens; for AC50: HTT alternative junction mRNA, read-out: HTT AJ (increase in AJ mRNA, AC50)
Method: (§1) Compounds described herein were used to modulate RNA transcript abundance in cells. The expression of a target mRNA was measured by detecting the formation of an exon-exon junction in the canonical transcript (CJ). A compound mediated exon-inclusion event was detected by observing an increase in formation of a new junction with an alternative exon (AJ). Real-time qPCR assays were used to detect these splicing switches and interrogate the potency of various compounds towards different target genes. A high-throughput real time quantitative PCR (RT-qPCR) assay was developed to measure these two isoforms of the mRNA (CJ and AJ) for exemplary genes, such as HTT, SMN2, and MYB, together with a control housekeeping gene, GAPDH or GUSB or PPIA, used for normalization. Briefly, the A673 or K562 cell line was treated with various compounds described herein (e.g., compounds of Formula (I)). After treatment, the levels of the HTT, MYB, or SMN2 mRNA targets were determined from each sample of cell lysate by cDNA synthesis followed by qPCR.
(§2) The A673 cell line was cultured in DMEM with 10% FBS. Cells were diluted with full growth media and plated in a 96-well plate (15,000 cells in 100 ul media per well). The plate was incubated at 37° C. with 5% CO2 for 24 hours to allow cells to adhere. An 11-point 3-fold serial dilution of the compounds was made in DMSO then diluted in media in an intermediate plate. Compounds were transferred from the intermediate plate to the cell plate with the top dose at a final concentration of 10 uM in the well. Final DMSO concentration was kept at or below 0.25%. The cell plate was returned to the incubator at 37° C. with 5% CO2 for an additional 24 hours.
(§3) The K562 cell line was cultured in IMDM with 10% FBS. For K562, cells were diluted with full growth media and plated in either a 96-well plate (50,000 cells in 50 uL media per well) or a 384-well plate (8,000-40,000 cells in 45 uL media per well). An 11-point 3-fold serial dilution of the compounds were made in DMSO then diluted in media in an intermediate plate. Compound was transferred from the intermediate plate to the cell plate with the top dose at a final concentration of 10 uM in the well. Final DMSO concentration was kept at or below 0.25%. Final volume was 100 uL for 96-well plate and 50 uL for 384-well plate. The cell plate was then placed in an incubator at 37° C. with 5% CO2 for 24 hours.
(§4) The cells were then gently washed with 50 uL-100 uL cold PBS before proceeding to addition of lysis buffer. 30 uL-50 μL of room temperature lysis buffer with DNAse I (and optionally RNAsin) was added to each well. Cells were shaken/mixed thoroughly at room temperature for 5-10 minutes for lysis to take place and then 3 uL-5 μL of room temperature stop solution was added and wells were shaken/mixed again. After 2-5 minutes, the cell lysate plate was transferred to ice for RT-qPCR reaction setup. The lysates could also be frozen at −80° C. for later use.
(§5) In some cases, a direct lysis buffer was used. An appropriate volume of 3× lysis buffer (10 mM Tris, 150 mM NaCl, 1.5%-2.5% Igepal and 0.1-1 U/uL RNAsin, pH 7.4) was directly added to either K562 or A673 cells in media and mixed by pipetting 3 times. The plates were then incubated at room temperature with shaking/rocking for 20-50 minutes to allow for lysis to take place. After this time, the cell lysate plate was transferred to ice to set up for the RT-qPCR reactions. The lysates could also be frozen at −80° C. for later use.
(§6) To set up 10 uL RT-qPCR reactions, cell lysates were transferred to 384-well qPCR plates containing the master mix according to the table below. The plates were sealed, gently vortexed, and spun down before the run. The volumes were adjusted accordingly in some instances where the reaction was carried in 20 μL. The table below summarizes the components of the RT-qPCR reactions:
(§7) The RT-qPCR reaction was performed using a QuantStudio (ThermoFisher) under the following fast cycling conditions. […]

MYB mRNA = assay: RT-qPCR splicing assay, MYB mRNA canonical (CJ) and alternative (AJ) junction; assay type: cell-based, human; conditions: Homo sapiens; for AC50: MYB alternative junction mRNA, read-out: MYB AJ (increase in AJ mRNA, AC50)
Method: as §1, §2, §3, §4, §5, §6, §7

SMN2 mRNA = assay: RT-qPCR splicing assay, SMN2 mRNA; assay type: cell-based, human; conditions: Homo sapiens, canonical junction qPCR panel, Table 4; read-out: SMN2 IC50 (decrease in CJ mRNA levels)
Method: as §1, §2, §3, §4, §5, §6, §7

MYB = assay: HiBiT protein abundance assay, MYB (K562 HiBiT knock-in); assay type: cell-based, human; conditions: HiBiT knock-in K562 cells, 24 hours, top dose 10 μM
Method: (§8) Compounds described herein were used to screen for effects on quantitative protein abundance using a HiBit assay system (Promega). Quantitative protein abundance was determined by measuring the protein levels of HiBit-tagged protein targets expressed in cell culture via luminescence using the Nano-Glo HiBiT Lytic Detection System, which uses a split complementation assay format to reconstitute NanoBiT enzyme to generate a luminescent signal. A protein abundance assay was developed such that endogenous protein targets could be modified with the HiBiT peptide tag and their abundance could be assessed after compound treatment. Briefly, K562 cell lines containing a HiBiT-modification were treated with various compounds described herein (e.g., compounds of Formulas (I), or (II)). After treatment for 24 hours, the protein abundance of a specific target was determined by measuring luminescence.
(§9) Cells were maintained in IMIDM with 10% FBS. Before the assay, cells were diluted with […] growth media (IMIDM+[…] media) and were seeded in a 384-well plate at a density of 10000 cells/well (for each cell line listed in Table 6). Each compound was prepared as a 10-point 3-fold serial dilution in DMSO with the top dose at a final concentration of 10 μM in the well. Unmodified K562 cells were added at the previously specified density with DMSO to serve as an assay baseline and positive control (PC) and DMSO only with the respective modified cell lines was added to the negative control (NC) columns. Final DMSO concentration was kept at or below 0.25%. Treated cell plates were placed in an incubator at 37° C. with […] for 24 hours. After 24 hours, 25 μL of Complete HiBit Lytic reagent was added to each well at room temperature (e.g. one plate requiring 10 mL Lytic Buffer, 100 μL LgBiT Protein, 200 μL Lytic Substrate), shaken for 5 minutes at 600 RPM, then left to sit for 10 minutes for signal to stabilize before reading on a Spark Cyto plate reader (Tecan) with a 500 ms measurement time.
(§10) To determine compound effects on protein abundance of each target in Table 6, the percent response for each respective cell line was calculated at each compound concentration as follows:
(§11) % response=100*(S−PC)(NC−PC)
(§12) For the normalized response at each concentration, a four-parameter logistical regression was fit to the data and the response was interpolated at the […] to determine a concentration for protein abundance at 50% (IC50) the untreated control.

HTT = assay: HiBiT protein abundance assay, HTT (K562 HiBiT knock-in); assay type: cell-based, human; conditions: HiBiT knock-in K562 cells, 24 hours, top dose 10 μM
Method: as §8, §9, §10, §11, §12

Target C = assay: HiBiT protein abundance assay, Target C (K562 HiBiT knock-in); assay type: cell-based, human; conditions: HiBiT knock-in K562 cells, 24 hours, top dose 10 μM
Method: as §9, §10, §11, §12

K562 cells = assay: Cell Titer Glo 2.0 cell viability (toxicity) assay, K562; conditions: 500 cells/well, 72 hours
Method: Compounds described herein were screened for toxicity in K562 (human chronic myelogenous leukemia) and SH-SY5Y (human neuroblastoma) cells using a Cell Titer Glo 2.0 assay.
Cells were plated at 500 cells/well (K562 cells) in 45 μL of IMDM supplemented with 10% FBS in a 384-well opaque plate. Wells containing only medium were used as a blank control. Test compounds (e.g., compounds of Formula (I) or (II)) were first serially diluted in DMSO then diluted 1:100 with EIDM+10% FBS. The final concentration of DMSO was 0.1% in each well. The cells were incubated for 72 hours at 37° C. and 5% CO2 before assaying with Cell Titer Glo 2.0 reagent.

[1] = HTT canonical junction mRNA, RT-qPCR, read-out: HTT CJ (decrease in CJ mRNA levels, IC50)
[2] = canonical junction qPCR panel, Table 4, read-out: HTT IC50 (decrease in CJ mRNA levels)
[3] = MYB canonical junction mRNA, RT-qPCR, read-out: MYB CJ (decrease in CJ mRNA levels, IC50)
[4] = canonical junction qPCR panel, Table 4, read-out: MYB IC50 (decrease in CJ mRNA levels)

| Structure (SMILES) | IC50 (MYB) [nM] | IC50 (HTT) [nM] | IC50 (Target C) [nM] | AC50 (HTT mRNA; RT-qPCR) [nM] | IC50 (HTT mRNA; [1]) [nM] | IC50 (HTT mRNA; [2]) [nM] | AC50 (MYB mRNA; RT-qPCR) [nM] | IC50 (MYB mRNA; [3]) [nM] | IC50 (MYB mRNA; [4]) [nM] | IC50 (SMN2 mRNA) [nM] | Effect of Exemplary Compounds on Cell Viability, K562 (K562 cells) |
| --- | --- | --- | --- | --- | --- | --- | --- | --- | --- | --- | --- |
| CN(C(=O)Nc1cn[nH]c1)c1cc2nc(N3CCNCC3)ccc2cn1 [Compound 110] | > 10000 | > 10000 | > 10000 | – | – | – | – | – | – | – | – |
| CN1CCC(N(C)c2ccc3nc(-c4cc5cn(C)nc5cc4O)ccc3n2)CC1 [Compound 126] | 100 to 1000 | 100 to 1000 | 100 to 1000 | 100 to 1000 | 100 to 1000 | 100 to 1000 | 100 to 1000 | 100 to 1000 | 100 to 1000 | < 100 | – |
| Cn1cc2cc(-c3ccc4nc(N5C[C@H]6CC[C@@H](C5)N6)ccc4n3)c(O)cc2n1 [Compound 135] | 100 to 1000 | 1000 to 10000 | 1000 to 10000 | 1000 to 10000 | 1000 to 10000 | 1000 to 10000 | 100 to 1000 | 100 to 1000 | 100 to 1000 | < 100 | – |

Now from value to molecule, other results behind:

| IC50 (MYB) [nM] | IC50 (HTT) [nM] | IC50 (Target C) [nM] | Structure (SMILES) | AC50 (HTT mRNA; RT-qPCR) [nM] | IC50 (HTT mRNA; [1]) [nM] | IC50 (HTT mRNA; [2]) [nM] | AC50 (MYB mRNA; RT-qPCR) [nM] | IC50 (MYB mRNA; [3]) [nM] | IC50 (MYB mRNA; [4]) [nM] | IC50 (SMN2 mRNA) [nM] | Effect of Exemplary Compounds on Cell Viability, K562 (K562 cells) |
| --- | --- | --- | --- | --- | --- | --- | --- | --- | --- | --- | --- |
| < 100 | < 100 | < 100 | Cc1nc2c(F)c(O)c(-c3ccc4nc(N5CC[C@@H](NC(C)(C)C)C5)ccc4n3)cc2o1 (single isomer, unassigned) [Compound 256] | < 100 | < 100 | < 100 | < 100 | < 100 | < 100 | < 100 | A (A represents <100 nM) |
| > 10000 | > 10000 | > 10000 | O=C(Nc1cn[nH]c1)Nc1cc2nc(N3CCNCC3)ccc2cn1 [Compound 111] | – | – | – | – | – | – | – | – |
| > 10000 | > 10000 | > 10000 | O=C(NCc1ccn[nH]1)Nc1cc2nc(N3CCNCC3)ccc2cn1 [Compound 112] | – | – | – | – | – | – | – | – |

Source: patent US20250092065A1, “2-(INDAZOL-5-YL)-6-(PIPERIDIN-4-YL)-1,7-NAPHTHYRIDINE DERIVATIVES AND RELATED COMPOUNDS AS MODULATORS FOR SPLICING NUCLEIC ACIDS AND FOR THE TREATMENT OF PROLIFERATIVE DISEASES” (REMIX THERAPEUTICS INC., priority 2022, published 2025)
